# Data published in PubChem BioAssay AID2060618 (Molecular Pharmacology Branch, DTP, NCI, 2025).
# Test system: 454973-116-R2-J3-PDC spheroids, percent test/control viability
# Test: Anticancer human tumor 454973-116-R2-J3-PDC patient-derived pancreatic carcinoma cell line growth inhibition [CLK]
# Conditions: spheroids with HUVEC and MSC; for IC50: curve of first compound; for viability, T/C: stronger effect = lower value
# Summary of the method: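 Patient-derived tumor cells grown as complex spheroids with HUVEC endothelial cells and mesenchymal stem cells, treated with drug combinations. Concentrations descend in half-log steps from near clinical Cmax, or from 10 microM if Cmax unknown.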
# [1] = second compound 0.0316 µM, first compound 0.0316 µM
# [2] = second compound 0.0316 µM, first compound 0.1 µM
# [3] = second compound 0.0316 µM, first compound 0.316 µM
# [4] = second compound 0.0316 µM, first compound 1 µM
# [5] = second compound 0.0316 µM, first compound 3.16 µM
# [6] = second compound 0.0316 µM, first compound 10 µM
# [7] = second compound 0.1 µM, first compound 0.0316 µM
# [8] = second compound 0.1 µM, first compound 0.1 µM
# [9] = second compound 0.1 µM, first compound 0.316 µM
# [10] = second compound 0.1 µM, first compound 1 µM
# [11] = second compound 0.1 µM, first compound 3.16 µM
# [12] = second compound 0.1 µM, first compound 10 µM
# [13] = second compound 0.316 µM, first compound 0.0316 µM
# [14] = second compound 0.316 µM, first compound 0.1 µM
# [15] = second compound 0.316 µM, first compound 0.316 µM
# [16] = second compound 0.316 µM, first compound 1 µM
# [17] = second compound 0.316 µM, first compound 3.16 µM
# [18] = second compound 0.316 µM, first compound 10 µM
# [19] = second compound 1 µM, first compound 0.0316 µM
# [20] = second compound 1 µM, first compound 0.1 µM
# [21] = second compound 1 µM, first compound 0.316 µM
# [22] = second compound 1 µM, first compound 1 µM
# [23] = second compound 1 µM, first compound 3.16 µM
# [24] = second compound 1 µM, first compound 10 µM
# [25] = second compound 3.16 µM, first compound 0.0316 µM
# [26] = second compound 3.16 µM, first compound 0.1 µM
# [27] = second compound 3.16 µM, first compound 0.316 µM
# [28] = second compound 3.16 µM, first compound 1 µM
# [29] = second compound 3.16 µM, first compound 3.16 µM
# [30] = second compound 3.16 µM, first compound 10 µM
# [31] = second compound 10 µM, first compound 0.0316 µM
# [32] = second compound 10 µM, first compound 0.1 µM
# [33] = second compound 10 µM, first compound 0.316 µM
# [34] = second compound 10 µM, first compound 1 µM
# [35] = second compound 10 µM, first compound 3.16 µM
# [36] = second compound 10 µM, first compound 10 µM
# 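Note: spheroids exposed to compounds for 7 days before readout.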
smiles,measurement,setting,value
CC1(C)CCC(CN2CCN(c3ccc(C(=O)NS(=O)(=O)c4ccc(NCC5CCOCC5)c([N+](=O)[O-])c4)c(Oc4cnc5[nH]ccc5c4)c3)CC2)=C(c2ccc(Cl)cc2)C1 + CN1CCN(c2cc(C(=O)Nc3cc4cc(-c5cnn(C)c5)ccc4cn3)ccn2)CC1,IC50,second compound 0.0316 µM,7.12 µM
same,IC50,second compound 0.1 µM,5.23 µM
same,IC50,second compound 0.316 µM,< 0.0316 µM
same,IC50,second compound 1 µM,< 0.0316 µM
same,IC50,second compound 3.16 µM,< 0.0316 µM
same,IC50,second compound 10 µM,< 0.0316 µM
same,"viability, T/C",[1],99.1%
same,"viability, T/C",[2],93.8%
same,"viability, T/C",[3],96.2%
same,"viability, T/C",[4],110%
same,"viability, T/C",[5],105%
same,"viability, T/C",[6],28.6%
same,"viability, T/C",[7],80%
same,"viability, T/C",[8],74.3%
same,"viability, T/C",[9],69.3%
same,"viability, T/C",[10],84%
same,"viability, T/C",[11],72.7%
same,"viability, T/C",[12],20.2%
same,"viability, T/C",[13],1.7%
same,"viability, T/C",[14],1.6%
same,"viability, T/C",[15],2.41%
same,"viability, T/C",[16],3.39%
same,"viability, T/C",[17],0.47%
same,"viability, T/C",[18],2.29%
same,"viability, T/C",[19],0.12%
same,"viability, T/C",[20],0.14%
same,"viability, T/C",[21],0.18%
same,"viability, T/C",[22],0.14%
same,"viability, T/C",[23],0.16%
same,"viability, T/C",[24],0.4%
same,"viability, T/C",[25],0.18%
same,"viability, T/C",[26],0.15%
same,"viability, T/C",[27],0.18%
same,"viability, T/C",[28],0.24%
same,"viability, T/C",[29],0.61%
same,"viability, T/C",[30],0.7%
same,"viability, T/C",[31],0.14%
same,"viability, T/C",[32],0.13%
same,"viability, T/C",[33],0.21%
same,"viability, T/C",[34],0.2%
same,"viability, T/C",[35],0.15%
same,"viability, T/C",[36],0.17%
CC1COCCN1c1cc(C2(S(C)(=N)=O)CC2)nc(-c2ccnc3[nH]ccc23)n1 (stereo unspecified) + CN1CCN(c2cc(C(=O)Nc3cc4cc(-c5cnn(C)c5)ccc4cn3)ccn2)CC1,IC50,second compound 0.0316 µM,7.24 µM
same,IC50,second compound 0.1 µM,4.52 µM
same,IC50,second compound 0.316 µM,< 0.0316 µM
same,IC50,second compound 1 µM,< 0.0316 µM
same,IC50,second compound 3.16 µM,< 0.0316 µM
same,IC50,second compound 10 µM,< 0.0316 µM
same,"viability, T/C",[1],97.4%
same,"viability, T/C",[2],105%
same,"viability, T/C",[3],96.2%
same,"viability, T/C",[4],106%
same,"viability, T/C",[5],83.3%
same,"viability, T/C",[6],37.1%
same,"viability, T/C",[7],73.4%
same,"viability, T/C",[8],80.5%
same,"viability, T/C",[9],91.4%
same,"viability, T/C",[10],77.5%
same,"viability, T/C",[11],62.9%
same,"viability, T/C",[12],21.5%
same,"viability, T/C",[13],1.53%
same,"viability, T/C",[14],2.23%
same,"viability, T/C",[15],1.84%
same,"viability, T/C",[16],1.74%
same,"viability, T/C",[17],1.04%
same,"viability, T/C",[18],0.46%
same,"viability, T/C",[19],0.13%
same,"viability, T/C",[20],0.13%
same,"viability, T/C",[21],0.16%
same,"viability, T/C",[22],0.1%
same,"viability, T/C",[23],0.11%
same,"viability, T/C",[24],0.1%
same,"viability, T/C",[25],0.17%
same,"viability, T/C",[26],0.21%
same,"viability, T/C",[27],0.22%
same,"viability, T/C",[28],0.2%
same,"viability, T/C",[29],0.15%
same,"viability, T/C",[30],0.21%
same,"viability, T/C",[31],1.56%
same,"viability, T/C",[32],0.21%
same,"viability, T/C",[33],0.22%
same,"viability, T/C",[34],0.31%
same,"viability, T/C",[35],0.25%
same,"viability, T/C",[36],0.6%
NC(=O)C(=Cn1cnc(-c2cc(C(F)(F)F)cc(C(F)(F)F)c2)n1)c1cncnc1 + CN1CCN(c2cc(C(=O)Nc3cc4cc(-c5cnn(C)c5)ccc4cn3)ccn2)CC1,IC50,second compound 0.0316 µM,0.53 µM
same,IC50,second compound 0.1 µM,0.167 µM
same,IC50,second compound 0.316 µM,< 0.00949 µM
same,IC50,second compound 1 µM,< 0.00949 µM
same,IC50,second compound 3.16 µM,< 0.00949 µM
same,IC50,second compound 10 µM,< 0.00949 µM
same,"viability, T/C","second compound 0.0316 µM, first compound 0.00949 µM",93.1%
same,"viability, T/C","second compound 0.0316 µM, first compound 0.03 µM",96.2%
same,"viability, T/C","second compound 0.0316 µM, first compound 0.0949 µM",70.5%
same,"viability, T/C","second compound 0.0316 µM, first compound 0.3 µM",65.9%
same,"viability, T/C","second compound 0.0316 µM, first compound 0.949 µM",36.9%
same,"viability, T/C","second compound 0.0316 µM, first compound 3 µM",9.03%
same,"viability, T/C","second compound 0.1 µM, first compound 0.00949 µM",81.8%
same,"viability, T/C","second compound 0.1 µM, first compound 0.03 µM",65.2%
same,"viability, T/C","second compound 0.1 µM, first compound 0.0949 µM",62.8%
same,"viability, T/C","second compound 0.1 µM, first compound 0.3 µM",41%
same,"viability, T/C","second compound 0.1 µM, first compound 0.949 µM",20.2%
same,"viability, T/C","second compound 0.1 µM, first compound 3 µM",2%
same,"viability, T/C","second compound 0.316 µM, first compound 0.00949 µM",0.71%
same,"viability, T/C","second compound 0.316 µM, first compound 0.03 µM",0.67%
same,"viability, T/C","second compound 0.316 µM, first compound 0.0949 µM",0.65%
same,"viability, T/C","second compound 0.316 µM, first compound 0.3 µM",0.1%
same,"viability, T/C","second compound 0.316 µM, first compound 0.949 µM",0.08%
same,"viability, T/C","second compound 0.316 µM, first compound 3 µM",0.11%
same,"viability, T/C","second compound 1 µM, first compound 0.00949 µM",0.11%
same,"viability, T/C","second compound 1 µM, first compound 0.03 µM",0.15%
same,"viability, T/C","second compound 1 µM, first compound 0.0949 µM",1.14%
same,"viability, T/C","second compound 1 µM, first compound 0.3 µM",0.08%
same,"viability, T/C","second compound 1 µM, first compound 0.949 µM",0.08%
same,"viability, T/C","second compound 1 µM, first compound 3 µM",0.06%
same,"viability, T/C","second compound 3.16 µM, first compound 0.00949 µM",0.08%
same,"viability, T/C","second compound 3.16 µM, first compound 0.03 µM",0.28%
same,"viability, T/C","second compound 3.16 µM, first compound 0.0949 µM",0.13%
same,"viability, T/C","second compound 3.16 µM, first compound 0.3 µM",0.13%
same,"viability, T/C","second compound 3.16 µM, first compound 0.949 µM",0.1%
same,"viability, T/C","second compound 3.16 µM, first compound 3 µM",0.72%
same,"viability, T/C","second compound 10 µM, first compound 0.00949 µM",1.5%
same,"viability, T/C","second compound 10 µM, first compound 0.03 µM",0.12%
same,"viability, T/C","second compound 10 µM, first compound 0.0949 µM",0.2%
same,"viability, T/C","second compound 10 µM, first compound 0.3 µM",0.2%
same,"viability, T/C","second compound 10 µM, first compound 0.949 µM",0.22%
same,"viability, T/C","second compound 10 µM, first compound 3 µM",0.23%
